Values quoted from earlier work in patent publication US5985868A, “Methods and compositions for treating androgen-dependant diseases using optically pure R-(-) casodex” (Sepracor Inc., priority 1998, dated 1999).

Columns and labels:
beta-adrenergic = settings: L-form versus D-enantiomer
[1] = in vivo
[2] = control of morning sickness during pregnancy
androgen = settings: in vivo
[3] = tested on: serum testosterone, estradiol and LH; settings: observed at all doses (10-50 mg p.o. per day)
[4] = estimated from oral studies
[5] = tested on: prostatic acid phosphatase; settings: human volunteers, 10-50 mg p.o. per day
[6] = racemic casodex at 30 or 50 mg
[7] = tested on: peripheral androgen receptors
glucocorticoid receptors = settings: at 5 nm
progesterone receptors = settings: at 5 nm

## CC(C)NCC(O)COc1cccc2ccccc12 [L-form of propranolol, propranolol]
beta-adrenergic
  potency relative to the D-enantiomer: 100 times

## O=C1CCC(N2C(=O)c3ccccc3C2=O)C(=O)N1 [L-enantiomer of thalidomide, thalidomide]
[1]
  teratogenicity: potent teratogen

## O=C1CCC(N2C(=O)c3ccccc3C2=O)C(=O)N1 [D-enantiomer of thalidomide, thalidomide]
[2]
  sedative effect: safe and effective sedative

## C[C@](O)(CS(=O)(=O)c1ccc(F)cc1)C(=O)Nc1ccc(C#N)c(C(F)(F)F)c1 [R-(-)-casodex, N-[4-cyano-3-(trifluoromethyl)phenyl]-3-[(4-fluorophenyl)sulfonyl]-2-hydroxy-2-methylpropanamide]
androgen
  ED50 in inhibiting androgen in rats: 0.5 mg/kg

## CC(O)(CS(=O)(=O)c1ccc(F)cc1)C(=O)Nc1ccc(C#N)c(C(F)(F)F)c1 (racemic) [racemic casodex, 4'-cyano-3-[(4-fluorophenyl)sulfonyl]-2-hydroxy-2-methyl-3'-(trifluoromethyl)propionanilide]
[3]
  elevations of serum testosterone, estradiol and LH: Significant but mild elevations
Glucocorticoid activity
  glucocorticoid activity: no progestational or glucocorticoid activity
[4]
  average half life: about 8 days
[5]
  reduction in prostatic acid phosphatase levels: 50 to 60%
[6]
  patients reporting gynecomastia and breast tenderness: Over half the patients
  patients reporting hot flushes: about 20%
  patients reporting nausea and vomiting, bone pain, confusion, constipation, headache, diarrhea, dyspepsia, fatigue, dizziness or rash: less than 10%
[7]
  agonist component at peripheral androgen receptors: little if any agonist component

## C[C@]1(O)CC[C@H]2[C@@H]3CCC4=CC(=O)CCC4=C3C=C[C@@]21C [[^3 H]-R1881, methyltrienolone]
Glucocorticoid receptors
  binding to glucocorticoid receptors: approximately 5%
Progesterone receptors
  binding to progesterone receptors: approximately 5%
